In patent US5534496A, “Methods and compositions to enhance epithelial drug transport” (University of Southern California, priority 1994, dated 1996):
Entries after “also recorded” stand apart in the source; their conditions may differ. Each block holds one molecule with its values, some of them ahead of it. Where a SMILES comes first, the peptide text is derived from it. [ ]: non-standard residue; d: D form. The star is where a group is joined. X1 = O=C(OCc1ccc(/N=N/c2ccccc2)cc1)*

Key:
[1] = Degradation in intestinal homogenates; type: in vitro ADME; settings: 0.5 mM; various intestinal homogenates
Description: Key: .quadrature., Pz-Pro-Leu; , Pro-Leu.

Caco2 monolayers = assay: Penetration of peptides across Caco2 monolayers; settings: 5 mM
[2] = from Betageri and Rogers (1987); cited from earlier work
[3] = test system: collagenase-like activity; assay: Collagenase activity (Pz-peptide hydrolysis) in homogenates and subcellular fractions of gastrointestinal mucosa; type: in vitro ADME; settings: albino rabbit intestinal segments
Protocol: Collagenase activity in homogenates and subcellular fractions of the gastrointestinal mucosa of the albino rabbit was determined by incubating 30 μl a homogenate or subcellular fraction with 20 μl of a Pz-peptide solution in 11% ethanol for up to 60 min. The subcellular fractions were the cytosolic and membrane fractions, and the concentrations of Pz-peptide ranged from 0.1 to 2 mM. The reaction was stopped by adding 225 μl of acetonitrile to the incubation mixture. Following centrifugation to remove precipitated proteins, an aliquot of the supernatant was injected into the HPLC for assay of the intact peptide and its hydrolytic product, Pz-L-Pro-L-Leu. Collagenase activity was determined from the initial slope of a plot of product concentration vs. time.
Using the procedure described in section A above, collagenase actively for the Pz-peptide was found in both tissue homogenate and subcellular fractions of the intestinal segments of the albino rabbit. Referring to FIG. 1, collagenase-like activity was highest in the descending colon and lowest in the jejunum, there being a 7-fold difference in activity at both high and low substrate concentration. […] About 60% of collagenase-like activity was in the cytosol.

[4] = test system: isolated segments of duodenum, jejunum, ileum, ascending colon, descending colon, and rectum; assay: Penetration across isolated intestinal segments in modified Ussing chamber; type: in vitro ADME, albino rabbit; settings: for penetration relative to atenolol, timolol and propranolol: all intestinal segments, all at 3 mM; for penetration: descending colon
Protocol: The penetration of Pz-peptide across the isolated segments of duodenum, jejunum, ileum, ascending colon, descending colon, and rectum of the albino rabbit was evaluated in the modified Ussing chamber. Solution of Pz-peptide at concentrations of 1, 3, and 5 mM were prepared in 5% hydroxypropyl β-cyclodextrin, which was found not to affect either collagenase activity or integrity of the intestinal segments. Periodically up until 240 min, a 50 μl aliquot was collected from the serosal side and injected directly into the HPLC. The apparent permeability coefficient Papp, was calculated using methods well known to one skilled in the art. Papp is defined as the flux of any solute transported across a given membrane per unit area normalized to the concentration applied (see pages 72-73 from the text by W. D. Stein entitled, "Transport and Diffusion A Cross Cell Membranes").

bacterial collagenase = assay: Hydrolysis by bacterial collagenase; settings: 0.04 mg/ml bacterial collagenase
[5] = test system: human colon carcinoma cell monolayer (Caco2); assay: Transepithelial electrical resistance (TEER) of Caco2 monolayers; settings: 3 mM; prolonged exposure
Protocol: A 500 ohms·cm^2 transepithelial electrical resistance, TEER, was used for the study.
The experiment was initiated by replacing the mucosal solution with sample solution. The viability of the cell monolayers was measured by TEER before and after exposure to the peptide solution. Five paracellular markers with different molecular radii were used to determine the extent of enhancement.

enzymatic degradation [1]: degraded to various extent | penetration relative to Pz-Pro-Leu (Caco2 monolayers): about 10 times lower
SMILES: CC(C)C[C@H](NC(=O)[C@@H]1CCCN1)C(=O)O [Pro-Leu, reference compound] (H-Pro-Leu-OH)

SMILES: CC(C)NCC(O)COc1cccc2ccccc12 (stereo not drawn) [propranolol]
distribution coefficient (DC) [2]: 1640

SMILES: CC(C)C[C@H](NC(=O)[C@@H]1CCCN1C(=O)OCc1ccc(/N=N/c2ccccc2)cc1)C(=O)NCC(=O)N1CCC[C@H]1C(=O)N[C@H](CCCNC(=N)N)C(=O)O [Pz-peptide, Pz-Pro-Leu-Gly-Pro-D-Arg] (X1-PLGP[dR]-OH)
rank order of collagenase-like activity (Pz-peptide hydrolysis) in intestinal segments [3]: descending colon>ascending colon>rectum>ileum>duodenum>jejunum | concentration dependence of penetration ([4]; 1-5 mM, lower G.I. regions): increased with increasing peptide concentrations | concentration dependence of transport ([4]; 1-5 mM, upper G.I. segments): independent of concentrations | permeability, lower intestine versus upper intestine ([4]; albino rabbit intestinal segments): lower intestine was more permeable | penetration relative to atenolol, timolol and propranolol [4]: penetrated equally well or even better | penetration [4]: penetrated very well; also recorded: penetrated the second best | rank order of permeability coefficient ([4]; lower intestine): rectum>descending colon>ascending colon | permeability of duodenum, jejunum and ileum ([4]; upper intestine): equally permeable

SMILES: CC(C)C[C@H](NC(=O)[C@@H]1CCCN1C(=O)OCc1ccc(/N=N/c2ccccc2)cc1)C(=O)O [Pz-Pro-Leu, Pz-L-Pro-L-Leu]
concentration dependence of penetration ([4]; all intestinal segments studied): independent of concentrations | penetration relative to atenolol, timolol and propranolol [4]: penetrated equally well or even better | penetration [4]: penetrated very well | enzymatic degradation [1]: resistant to enzymatic degradation

SMILES: CC(C)C[C@H](NC(=O)[C@@H]1CCCN1)C(=O)N[C@@H](CCC(=O)O)C(=O)N1CCC[C@H]1C(=O)N[C@H](CCCNC(=N)N)C(=O)O [PLEP^d R, Pro-Leu-Glu-Pro-^d Arg] (H-PLEP[dR]-OH)
susceptibility to collagenase action (bacterial collagenase): not susceptible to collagenase action

SMILES: C=C1[C@@H](C)[C@H]2[C@H](Cc3ccccc3)NC(=O)[C@]23OC(=O)/C=C/[C@H](O)CCC[C@@H](C)C/C=C/[C@H]3[C@@H]1O [cytochalasin B]
recovery of TEER [5]: only partial recovery

SMILES: CC(C)(C)NC[C@H](O)COc1nsnc1N1CCOCC1 [timolol]
distribution coefficient (DC) [2]: 82
